This is an account of results in ChEMBL document CHEMBL1201862, “PubChem BioAssay data set” (2004).

Each structure is given as a SMILES string. The source made the active and inactive calls.

The target of one assay is Large T antigen (Simian virus 40, UniProt P03070). Type of assay: functional, Betapolyomavirus macacae.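 Further: Confirmatory-stage PubChem screen for compounds that inhibit SV40 T antigen.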
Assay [1] concerns the target T1, Short transient receptor potential channel 4 (Mus musculus, UniProt Q9QUQ5).
T1 sequence (Q9QUQ5 whole entry): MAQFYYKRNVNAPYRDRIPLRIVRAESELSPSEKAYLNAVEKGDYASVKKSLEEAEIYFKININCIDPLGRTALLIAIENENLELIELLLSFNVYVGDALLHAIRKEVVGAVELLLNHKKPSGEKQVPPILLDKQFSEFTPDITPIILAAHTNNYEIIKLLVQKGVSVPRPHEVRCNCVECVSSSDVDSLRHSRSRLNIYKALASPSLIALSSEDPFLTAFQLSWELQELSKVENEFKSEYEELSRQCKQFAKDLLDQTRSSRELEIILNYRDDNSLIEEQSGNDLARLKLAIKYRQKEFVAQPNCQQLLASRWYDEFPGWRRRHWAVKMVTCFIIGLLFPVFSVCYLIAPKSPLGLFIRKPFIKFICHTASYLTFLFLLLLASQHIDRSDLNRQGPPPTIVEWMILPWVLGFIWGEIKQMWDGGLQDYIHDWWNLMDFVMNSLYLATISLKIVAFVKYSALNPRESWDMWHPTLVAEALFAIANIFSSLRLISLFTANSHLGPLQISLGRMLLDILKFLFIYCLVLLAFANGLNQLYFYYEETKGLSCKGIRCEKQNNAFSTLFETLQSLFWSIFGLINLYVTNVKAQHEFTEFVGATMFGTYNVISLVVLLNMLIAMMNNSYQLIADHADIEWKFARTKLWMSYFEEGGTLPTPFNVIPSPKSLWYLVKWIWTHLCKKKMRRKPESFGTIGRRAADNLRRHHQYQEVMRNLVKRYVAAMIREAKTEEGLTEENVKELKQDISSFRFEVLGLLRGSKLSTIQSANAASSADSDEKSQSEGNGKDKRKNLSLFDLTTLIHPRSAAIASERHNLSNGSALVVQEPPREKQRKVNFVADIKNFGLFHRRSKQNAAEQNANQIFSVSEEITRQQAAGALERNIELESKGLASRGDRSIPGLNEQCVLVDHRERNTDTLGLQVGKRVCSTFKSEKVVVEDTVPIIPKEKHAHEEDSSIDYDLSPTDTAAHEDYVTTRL
Briefly: calcium entry via TRPC4 opening agents – cell-based, HEK293 TRPC4/mu-opioid, Fluo-4 calcium, dose response (AID 434937). Type of assay: functional.

Assay [2] has as its target Heat shock protein HSP 90-alpha (Homo sapiens, UniProt P07900). Type of assay: functional, organism-based.
A further assay concerns the target Genome polyprotein (dengue virus type 2, UniProt P29990). Briefly: flavivirus cap methylation enzyme inhibition – biochemical, confirmation dose response, primary screen (AID 588689). It counts as functional.
A short description of assay [3]: intracellular Trypanosoma cruzi inhibitors in host cells – cell-based, plate reader, cherry-pick samples, set 3, dose response (AID 651818).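 Further: compounds incubated with infected cells for about four days.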 It counts as functional.
Assay [4] has as its target Induced myeloid leukemia cell differentiation protein Mcl-1 (Homo sapiens, UniProt Q07820). It counts as functional.
Another assay deals with INS1. Description: INS-1E survival protection against cytokine death – cell-based, luminescence, retest, dose response (AID 449756).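 Further: cell death triggered by IL-1 beta plus TNF-alpha plus IFN-gamma mixture; protective hits raise ATP signal compared with cytokine alone wells.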 Type of assay: functional. The conditions noted are these: Rattus norvegicus.
Assay [5] addresses T2, Polyadenylate-binding protein 1 (Homo sapiens, UniProt P11940). Description: MLLE domain peptide-binding blockers, IC50 – biochemical, fluorescence polarization, FITC-PAM2 peptide, dose response (AID 602259). It counts as functional. The conditions noted are these: read-out: IC50_Mean. A general note: In fluorescence polarisation assays a small probe gives low polarisation when free and higher when bound to something large.

In assay [6] the target is T2, Polyadenylate-binding protein 1. Briefly: MLLE binding blockers, Cy5 peptide tracer – biochemical, fluorescence polarization, Cy5-PAM2 peptide, secondary, miRNA deadenylation inhibitor project, dose response (AID 602260). Type of assay: functional. Particulars: read-out: IC50_Mean.
The target of assay [7] is T3, Rac GTPase-activating protein 1 (Homo sapiens, UniProt Q9H0H5).
T3 sequence (Q9H0H5 whole entry): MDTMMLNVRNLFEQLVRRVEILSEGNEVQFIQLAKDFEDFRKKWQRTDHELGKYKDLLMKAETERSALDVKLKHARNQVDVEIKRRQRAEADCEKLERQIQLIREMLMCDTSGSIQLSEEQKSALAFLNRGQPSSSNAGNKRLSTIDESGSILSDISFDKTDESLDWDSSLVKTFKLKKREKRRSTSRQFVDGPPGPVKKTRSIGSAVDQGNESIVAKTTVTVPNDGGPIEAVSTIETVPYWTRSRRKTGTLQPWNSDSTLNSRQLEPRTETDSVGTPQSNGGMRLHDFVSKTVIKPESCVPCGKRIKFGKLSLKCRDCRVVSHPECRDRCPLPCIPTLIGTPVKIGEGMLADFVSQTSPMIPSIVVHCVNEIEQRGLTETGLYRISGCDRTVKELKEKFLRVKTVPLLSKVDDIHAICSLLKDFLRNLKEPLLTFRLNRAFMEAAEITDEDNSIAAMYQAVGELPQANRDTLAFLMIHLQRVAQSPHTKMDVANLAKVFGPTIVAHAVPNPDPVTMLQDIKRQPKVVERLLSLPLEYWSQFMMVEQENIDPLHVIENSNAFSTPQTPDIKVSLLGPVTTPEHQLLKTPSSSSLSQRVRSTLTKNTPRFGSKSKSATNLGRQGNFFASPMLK
Briefly: blockers of MgcRacGAP-driven Rac1 GTP hydrolysis – biochemical, ADP Hunter fluorescence, primary and confirmatory, confirmation (AID 624330). It counts as functional.

For assay [8], the target named is FAD-linked sulfhydryl oxidase ALR (Homo sapiens, UniProt P55789). Description: ALR-catalysed DTT oxidation blockers – biochemical, H2O2 detection, luminescence, cherry-pick, dose response (AID 493248).
Assay [9] deals with T4, Corticotropin-releasing factor receptor 2/Corticotropin-releasing factor-binding protein (Homo sapiens, UniProt P24387+Q13324).
T4 sequence (Q13324 whole entry): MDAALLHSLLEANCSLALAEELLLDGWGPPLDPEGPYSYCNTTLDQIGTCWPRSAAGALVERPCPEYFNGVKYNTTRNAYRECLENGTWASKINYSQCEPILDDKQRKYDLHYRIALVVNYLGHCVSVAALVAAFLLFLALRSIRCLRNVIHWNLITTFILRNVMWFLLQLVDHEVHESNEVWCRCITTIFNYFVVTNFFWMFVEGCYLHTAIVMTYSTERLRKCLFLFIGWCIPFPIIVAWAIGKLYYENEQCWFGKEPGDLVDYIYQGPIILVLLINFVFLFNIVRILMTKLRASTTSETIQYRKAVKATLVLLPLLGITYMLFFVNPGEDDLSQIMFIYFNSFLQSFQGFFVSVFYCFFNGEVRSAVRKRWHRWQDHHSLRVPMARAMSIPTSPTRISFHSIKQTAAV
T4 sequence (P24387 whole entry): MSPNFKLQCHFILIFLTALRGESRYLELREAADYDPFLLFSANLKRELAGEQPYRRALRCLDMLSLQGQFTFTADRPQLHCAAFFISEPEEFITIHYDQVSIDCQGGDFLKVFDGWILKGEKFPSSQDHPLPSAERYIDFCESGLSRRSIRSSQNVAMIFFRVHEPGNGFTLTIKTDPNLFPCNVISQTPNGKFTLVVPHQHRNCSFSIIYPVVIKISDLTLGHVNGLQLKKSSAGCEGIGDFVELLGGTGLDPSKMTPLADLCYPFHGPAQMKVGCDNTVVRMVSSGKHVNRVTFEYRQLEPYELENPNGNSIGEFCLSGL
Briefly: activators of CRF receptor 2 with binding protein – uHTS hits, confirmation (AID 602473). The conditions noted are these: read-out: EC50_Mean. It counts as functional.

A short description of assay [10]: NIH3T3 cell viability loss – ATP luminescence, mouse fibroblasts, counter-screen, dose response (AID 2010).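 Further: cells exposed to compound for about 90 hours before reading.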 It counts as functional, cell-based. (In general: Counterscreens check selectivity or assay interference.)
A short description of assay [11]: Trypanosoma cruzi growth suppression in host cells – NIH3T3 host cells, beta-gal luminescence, confirmation (AID 2044).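 Further: intracellular parasites grown in NIH/3T3 mouse fibroblasts as host cells; luminescent beta-galactosidase reporter signal from transgenic T. cruzi replicating inside host cells; inhibitors lower the luminescence signal.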 Type of assay: functional, cell-based.

Sequence of Large T antigen (P03070 whole entry): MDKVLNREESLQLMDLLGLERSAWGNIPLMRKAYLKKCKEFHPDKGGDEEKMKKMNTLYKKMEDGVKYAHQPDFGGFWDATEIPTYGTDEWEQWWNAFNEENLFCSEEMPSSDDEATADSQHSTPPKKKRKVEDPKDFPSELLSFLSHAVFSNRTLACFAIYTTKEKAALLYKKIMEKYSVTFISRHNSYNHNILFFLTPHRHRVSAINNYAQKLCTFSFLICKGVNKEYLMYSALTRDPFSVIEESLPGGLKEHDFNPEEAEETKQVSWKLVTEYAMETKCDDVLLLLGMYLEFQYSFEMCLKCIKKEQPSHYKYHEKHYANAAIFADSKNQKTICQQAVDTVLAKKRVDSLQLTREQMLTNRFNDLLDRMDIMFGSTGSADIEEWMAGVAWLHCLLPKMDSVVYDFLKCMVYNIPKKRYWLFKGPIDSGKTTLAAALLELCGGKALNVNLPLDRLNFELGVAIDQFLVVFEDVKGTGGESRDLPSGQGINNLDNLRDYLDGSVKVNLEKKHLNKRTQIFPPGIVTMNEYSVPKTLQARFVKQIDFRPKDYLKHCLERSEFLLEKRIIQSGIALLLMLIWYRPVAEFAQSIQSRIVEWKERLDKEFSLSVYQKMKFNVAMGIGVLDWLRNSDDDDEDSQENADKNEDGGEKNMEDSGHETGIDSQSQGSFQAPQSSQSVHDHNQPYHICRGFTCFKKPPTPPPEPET
Sequence of Induced myeloid leukemia cell differentiation protein Mcl-1 (Q07820 whole entry): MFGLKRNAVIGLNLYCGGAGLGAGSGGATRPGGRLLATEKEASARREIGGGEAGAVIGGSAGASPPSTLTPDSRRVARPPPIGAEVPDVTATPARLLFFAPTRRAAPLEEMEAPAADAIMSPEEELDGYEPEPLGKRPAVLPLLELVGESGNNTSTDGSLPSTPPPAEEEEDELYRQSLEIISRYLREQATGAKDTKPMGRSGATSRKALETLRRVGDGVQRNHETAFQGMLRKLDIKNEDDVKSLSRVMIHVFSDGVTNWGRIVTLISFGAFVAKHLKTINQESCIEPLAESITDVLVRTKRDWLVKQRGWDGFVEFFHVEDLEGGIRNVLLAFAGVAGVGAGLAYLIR
T2 sequence (P11940 whole entry, the tested form may be a part): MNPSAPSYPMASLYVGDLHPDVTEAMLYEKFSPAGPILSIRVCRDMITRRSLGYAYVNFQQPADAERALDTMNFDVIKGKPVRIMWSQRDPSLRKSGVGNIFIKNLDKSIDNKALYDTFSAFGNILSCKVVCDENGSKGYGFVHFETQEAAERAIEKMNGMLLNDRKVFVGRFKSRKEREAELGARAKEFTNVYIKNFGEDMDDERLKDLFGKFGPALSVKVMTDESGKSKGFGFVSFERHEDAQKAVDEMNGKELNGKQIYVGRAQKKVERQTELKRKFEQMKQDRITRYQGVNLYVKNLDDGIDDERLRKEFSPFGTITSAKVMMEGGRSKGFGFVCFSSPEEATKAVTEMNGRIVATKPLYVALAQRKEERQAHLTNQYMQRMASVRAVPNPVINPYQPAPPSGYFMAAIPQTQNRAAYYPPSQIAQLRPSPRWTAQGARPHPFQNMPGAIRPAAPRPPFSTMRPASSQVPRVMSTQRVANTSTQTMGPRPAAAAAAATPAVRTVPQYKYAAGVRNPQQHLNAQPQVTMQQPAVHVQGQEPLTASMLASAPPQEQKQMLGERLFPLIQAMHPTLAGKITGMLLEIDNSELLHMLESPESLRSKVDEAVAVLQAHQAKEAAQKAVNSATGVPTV
Sequence of Genome polyprotein (P29990 2492-3391 limits assumed): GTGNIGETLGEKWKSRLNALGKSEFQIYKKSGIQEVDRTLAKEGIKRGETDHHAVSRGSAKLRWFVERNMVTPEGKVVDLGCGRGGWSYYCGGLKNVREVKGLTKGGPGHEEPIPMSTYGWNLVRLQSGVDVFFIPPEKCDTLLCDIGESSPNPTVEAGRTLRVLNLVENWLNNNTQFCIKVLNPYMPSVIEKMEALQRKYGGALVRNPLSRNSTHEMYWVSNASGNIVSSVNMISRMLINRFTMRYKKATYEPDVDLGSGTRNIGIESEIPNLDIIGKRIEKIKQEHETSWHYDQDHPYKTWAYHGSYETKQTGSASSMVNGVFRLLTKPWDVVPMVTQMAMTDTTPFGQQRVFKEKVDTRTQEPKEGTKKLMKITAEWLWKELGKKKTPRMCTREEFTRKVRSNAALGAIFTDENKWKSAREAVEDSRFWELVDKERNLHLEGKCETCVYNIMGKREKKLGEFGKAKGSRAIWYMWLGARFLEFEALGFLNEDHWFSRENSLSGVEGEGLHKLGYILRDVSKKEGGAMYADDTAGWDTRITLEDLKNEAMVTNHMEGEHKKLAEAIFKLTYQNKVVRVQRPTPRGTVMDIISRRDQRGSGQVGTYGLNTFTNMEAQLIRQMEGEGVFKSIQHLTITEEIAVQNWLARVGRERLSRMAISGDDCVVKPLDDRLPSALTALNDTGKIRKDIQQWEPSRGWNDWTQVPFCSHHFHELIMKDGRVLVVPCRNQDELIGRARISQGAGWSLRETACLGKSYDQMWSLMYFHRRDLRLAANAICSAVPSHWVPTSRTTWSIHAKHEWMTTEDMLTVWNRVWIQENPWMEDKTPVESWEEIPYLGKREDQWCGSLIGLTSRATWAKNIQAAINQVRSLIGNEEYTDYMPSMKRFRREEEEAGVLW
Sequence of FAD-linked sulfhydryl oxidase ALR (P55789 whole entry): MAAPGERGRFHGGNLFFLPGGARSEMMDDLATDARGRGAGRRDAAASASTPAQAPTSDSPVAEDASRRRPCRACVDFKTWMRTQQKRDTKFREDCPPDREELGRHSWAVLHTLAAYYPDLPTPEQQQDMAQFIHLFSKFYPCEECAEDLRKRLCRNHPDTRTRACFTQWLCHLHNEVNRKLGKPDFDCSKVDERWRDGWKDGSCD

With `COc1ccc(OC)c(/C=N/NC(=O)CCc2ccc(O)c(O)c2)c1`, the IC50 at Large T antigen is 19.1 µM (active).
In the case of `COC(=O)C1CCN(Cc2cn(-c3ccccc3)nc2-c2ccc3c(c2)OCO3)CC1`, the EC50 in assay [1] is 1.88 µM (active).
By AC50 is commonly meant the midpoint of the concentration-response curve, whichever way the signal moves. With `O=[N+]([O-])c1oc2ccc3ccccc3c2c1CCO`, the concentration at half-maximal activity (AC50) in [2] was 1.23 µM (active).
Regarding `Cc1ccc(S(=O)(=O)N2[C@@H](c3cccc(Cl)c3)C(C(=O)O)=CC[C@H]2c2ccc(C(C)C)cc2)cc1`, the IC50 at Genome polyprotein is 36.3 µM (active).
As for `C[C@H]1CN([C@@H](C)CO)C(=O)c2cccc(NS(=O)(=O)c3ccc(Cl)cc3)c2O[C@H]1CN(C)Cc1ccc(C(=O)Nc2ccccc2N)cc1`, in assay [3], the AC50 is 2.28 µM (active).
For `CC1CC(C)CN(CCCNS(=O)(=O)c2cc(Br)cc3c2N(C(=O)C2CC2)CC3)C1` (stereo not given), the EC50 in [1] is 0.0267 µM (active).
Regarding `O=C(CSc1ccsc1[N+](=O)[O-])N1CCN(c2ccc(Cl)cc2)CC1`, in assay [4], the IC50 was 5.8 µM (active).
`COc1ccc(-c2c(-c3ccc(O)cc3O)n[nH]c2C)cc1OC`: the IC50 at Large T antigen is 33.6 µM (active).
In the case of `Oc1cccc2cnccc12`, the IC50 at Large T antigen was 17.1 µM (active).
With `O=[N+]([O-])c1cccc(N/N=C/c2cc([N+](=O)[O-])ccc2O)c1`, in assay [4], the IC50 was < 0.4 µM (active).
Regarding `C[C@H]1CN([C@@H](C)CO)C(=O)Cc2cc(N(C)C)ccc2O[C@@H]1CN(C)Cc1ccc(C(F)(F)F)cc1`, in assay [3], the AC50 was 0.991 µM (active).
Regarding `CCCN(CCC)CCCNC(=O)C1CCN(S(=O)(=O)c2cccc3nsnc23)CC1`, the EC50 in assay [1] was 0.133 µM (active).
As for `Cc1cc(-c2ccccc2)cc(C)[n+]1Cc1ccccc1.[O-][Cl+3]([O-])([O-])[O-]`, the EC50 in assay [1] is 1.88 µM (active). Further, the AC50 with INS1 is 0.719 µM (active).
With `C=CCc1c(C)nc(SCCC)nc1O`, the IC50 in assay [4] is 9.1 µM (not active).
`Cc1noc(C)c1S(=O)(=O)Nc1cccc2c1O[C@H](CN(C)Cc1ccc(C(=O)Nc3ccccc3N)cc1)[C@H](C)CN([C@H](C)CO)C2=O`: the half-maximal activity concentration (AC50) in assay [3] was 3.53 µM (active).
Turning to `COc1ccc(/C(C)=N\NC(=O)CSc2nnc(C)s2)cc1`, the IC50 in assay [5] and in assay [6] was > 66 µM (inactive) throughout.
As to `C[C@H](CO)N1C[C@H](C)[C@H](CN(C)S(=O)(=O)c2cccs2)Oc2c(NC(=O)c3nc4ccccc4s3)cccc2C1=O`, the AC50 in assay [3] was 1.67 µM (active).
As for `COC(=O)C1=C(O)/C(=C\c2ccc(O)c(OC)c2)N=C1C`, the IC50 is 7.79 µM (active) at Large T antigen and 20.2 µM (active) in assay [7].
Turning to `COc1ccc(N2CCN(Cc3nc4ccccc4n3C)CC2)cc1`, the AC50 in assay [8] is 8.25 µM (active). In [1], the EC50 was 6.68 µM (active).
Consider `CCOC(=O)c1c(-c2ccc(C)cc2)csc1NC(=O)/C(C#N)=C/c1ccc(O)c(OC)c1`, for which the EC50 in assay [9] is 2.87 µM (active). Also, the IC50 in assay [4] is > 54 µM (active).
As to `Cc1noc(O)c1N=Nc1c(Cl)cccc1Cl`, the concentration at half-maximal activity (AC50) in [2] is 8.73 µM (active).
As to `Cc1ccc(NC(S)=Nc2ccccn2)cc1C`, the IC50 in [5] and in [6] was > 66 µM (inactive) throughout.
Take `O=C1CC(N2CCN(c3nc4ccccc4s3)CC2)C(=O)N1Cc1cccs1` (stereo not given): in assay [2], the AC50 was 3.34 µM (active).
In the case of `C[C@H](CO)N1C[C@H](C)[C@@H](CN(C)Cc2ccc(-c3ccccc3)cc2)Oc2c(NC(=O)CCCCCC(=O)Nc3ccccc3N)cccc2C1=O`, the AC50 in [3] is 1.6 µM (active).
As for `CCOc1cc(/C=N/NC(=O)CCn2nnc3ccccc32)ccc1O`, the IC50 at Large T antigen was 10.4 µM (active).
With `Cc1ccc(C)c(OCCCCCn2ccnc2)c1`, the EC50 was 4.76 µM (active) in [10], 0.505 µM (active) in assay [11] and 3.35 µM (active) in assay [1].
Regarding `CC(C)c1ccc(O)c(NC(=S)NC(=O)CCc2ccccc2)c1`, the IC50 in [5] and in assay [6] was > 66 µM (inactive) in each case.
Take `O=C1C=CC(=O)N1c1cccc(-c2ccccc2)c1`: in assay [2], the half-maximal activity concentration (AC50) was 0.378 µM (active).
In the case of `COC(=O)CSc1nnc(CNc2ccc(OC)cc2)n1C`, the IC50 on Large T antigen is 45.8 µM (active).
Turning to `COc1ccc2[nH]c3c(=O)n(Cc4ccc(C(=O)N5CCCC5)cc4)c(=S)[nH]c3c2c1`, the IC50 in assay [4] is 3.5 µM (not active).
`Cc1nn(CCc2nc(-c3ccco3)cs2)c2nc(O)cc(C(F)(F)F)c12`: on Genome polyprotein, the IC50 is > 100 µM (active).
Consider `Cc1ccc2nc(-c3ccc(NS(C)(=O)=O)cc3)cc(-c3ccccc3)c2c1`, for which the concentration at half-maximal activity (AC50) in [2] was 8 µM (active).
On to `Cc1cccc(N(C)C(=O)CCS(=O)(=O)c2cc3c(cc2Cl)NC(=O)CO3)c1`, for which the IC50 in assay [5] and in [6] was > 66 µM (inactive) each time.
Turning to `Cc1ccc(S(=O)(=O)Nc2ccc3c(c2)C(=O)N([C@@H](C)CO)C[C@@H](C)[C@@H](CN(C)Cc2ccc(Cl)c(Cl)c2)O3)cc1`, the concentration at half-maximal activity (AC50) in [3] was 3.36 µM (active).
On to `C[C@@H]1CN([C@H](C)CO)C(=O)c2cccc(NC(=O)CCCCCC(=O)Nc3ccccc3N)c2O[C@H]1CN(C)CC1CCCCC1`, for which the half-maximal activity concentration (AC50) in assay [3] is 3.18 µM (active).
